Numbered stars: 1 amine (or outer) side, 2 acyl side, 3 side chain; on linkers, the order of the positions; unused ones are H or OH. Bridge positions count the residues as written; N and C are the ends. Side chains are listed from the residue outwards. Peptide text beside a SMILES is read from it. * marks the point of attachment. C20 diacid = O=C(O)CCCCCCCCCCCCCCCCCCC(=O)*; γGlu = O=C(O)[C@H](CCC(=O)[*:2])N[*:1]
Legend:
Sprague Dawley (SD) rats = assay: ASSAY (I) efficacy testing on appetite (food intake) using an ad libitum fed rat model; type: in vivo; details: rat, 30 nmol/kg
How it was run: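 Ad libitum fed SD rats (200–250 g) were housed singly on a reversed light/dark cycle and given one 0.01–3 mg/kg dose ip, po or sc just before lights-off, with 5–8 per dose group plus vehicle controls. Food intake was recorded hourly for 7 h, then at 24 h and sometimes 48 h; Grubbs outliers were excluded.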

rat calcitonin receptor = target: T1, rat calcitonin receptor (Rattus norvegicus, UniProt P32214); assay: ASSAY (VIII) binding to the rat calcitonin receptor; details: Table 7, read-out: rCTR bind IC50
T1 construct: expressed in transfected cells; host or cells: BHK tk'ts 13 (transient, FuGENE 6), membranes
T1 sequence (P32214 25-479 isoform P32214-2 limits assumed): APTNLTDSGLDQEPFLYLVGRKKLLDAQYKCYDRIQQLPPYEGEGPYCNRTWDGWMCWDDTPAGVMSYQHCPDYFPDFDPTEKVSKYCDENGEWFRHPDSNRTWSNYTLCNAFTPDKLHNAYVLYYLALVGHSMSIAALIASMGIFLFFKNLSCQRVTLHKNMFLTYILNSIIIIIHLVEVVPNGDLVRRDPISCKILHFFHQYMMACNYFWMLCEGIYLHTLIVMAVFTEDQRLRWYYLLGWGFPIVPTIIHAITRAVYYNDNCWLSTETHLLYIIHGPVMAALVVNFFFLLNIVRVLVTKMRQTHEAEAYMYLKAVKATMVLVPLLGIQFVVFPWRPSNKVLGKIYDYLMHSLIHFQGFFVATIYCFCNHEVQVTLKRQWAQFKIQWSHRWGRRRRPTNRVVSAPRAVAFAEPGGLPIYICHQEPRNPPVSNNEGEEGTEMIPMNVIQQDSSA
How it was run: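 Transfect BHK tk′ts 13 cells transiently with rat calcitonin receptor, culture in DMEM containing 10% FBS, collect cells about 48 hours later, then prepare membranes.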

[1] = target: T2, rat amylin receptor (rat calcitonin receptor + rat RAMP 3) (Rattus norvegicus, UniProt P32214+Q9JJ73); assay: ASSAY (VI) binding to the rat amylin receptor; details: for IC50: binding to rat amylin receptor, read-out: rAmylin-R bind IC50
T2 construct: expressed in transfected cells; host or cells: BHK tk'ts 13 (transient, FuGENE 6), membranes
T2 sequence (P32214 25-479 isoform P32214-2 limits assumed): T1 sequence (P32214 25-479 isoform P32214-2 limits assumed)
T2 sequence (Q9JJ73 23-147 partner): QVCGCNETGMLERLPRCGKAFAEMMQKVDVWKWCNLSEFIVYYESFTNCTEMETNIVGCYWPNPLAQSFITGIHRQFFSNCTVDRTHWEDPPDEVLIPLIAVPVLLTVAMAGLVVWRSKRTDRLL
How it was run: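 Binding to the rat amylin receptor was determined with membrane preparations. The receptor was expressed by transiently transfecting BHK tk′ts 13 cells with rat calcitonin receptor, using FuGENE® 6 (Roche) according to the manufacturer's recommendations. Roughly 48 hours later the cells were harvested and their membranes isolated.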

[2] = Table 7, rat binding selectivity, rCTR IC50 / rAmylin-R IC50
[3] = Table 7a (preferred compounds), rat binding selectivity, rCTR IC50 / rAmylin-R IC50
[4] = ratio of rCTR bind IC50 to rAmylin-R bind IC50

| Compound | IC50 (rat calcitonin receptor) | IC50 ([1]; Table 7) | Ratio rCT/rAmylin binding [1, 2] | Ratio rCT/rAmylin binding [1, 3] | Ratio rCT/rAmylin binding [1, 4] | Food intake reduction 0-24 h 30 nmol/kg (%) (Sprague Dawley (SD) rats) | Food intake reduction 24-48 h 30 nmol/kg (%) (Sprague Dawley (SD) rats) |
| --- | --- | --- | --- | --- | --- | --- | --- |
| CC[C@H](C)[C@H](NC(=O)[C@H](C)NC(=O)CNC(=O)[C@H](Cc1ccccc1)NC(=O)[C@H](CC(N)=O)NC(=O)[C@@H]1CCCN1C(=O)[C@H](CO)NC(=O)[C@H](CO)NC(=O)[C@H](Cc1c[nH]cn1)NC(=O)[C@H](CCCNC(=N)N)NC(=O)[C@H](CC(C)C)NC(=O)[C@H](Cc1ccccc1)NC(=O)[C@H](Cc1c[nH]cn1)NC(=O)[C@H](C)NC(=O)[C@H](CC(C)C)NC(=O)[C@H](CCCNC(=N)N)NC(=O)[C@H](CCC(N)=O)NC(=O)[C@@H](NC(=O)[C@H](C)NC(=O)[C@@H]1CSSC[C@H](NC(=O)[C@H](CCCCN)NC(=O)CC[C@H](NC(=O)CCCCCCCCCCCCCCCCCCC(=O)O)C(=O)O)C(=O)N[C@@H](CC(N)=O)C(=O)N[C@@H]([C@@H](C)O)C(=O)N[C@@H](C)C(=O)N[C@@H]([C@@H](C)O)C(=O)N1)[C@@H](C)O)C(=O)N1CCC[C@H]1C(=O)N[C@@H](CO)C(=O)N[C@@H](CO)C(=O)N[C@H](C(=O)N[C@@H](CC(N)=O)C(=O)N[C@H](C(=O)NCC(=O)N[C@@H](CO)C(=O)N[C@@H](CCC(=O)O)C(=O)N[C@H](C(=O)N[C@@H](Cc1ccc(O)cc1)C(N)=O)[C@@H](C)O)C(C)C)[C@@H](C)O [Example 30] ({C20 diacid-γGlu}-KCNTATCATQRLAHFLRHSSPNFGAIPSSTNVGSETY-NH2; disulfide 2-7) | 114 nM | 3.14 nM | 36.1 | 36.1 | 36.1 | 41% | 17% |
| CC[C@H](C)[C@H](NC(=O)[C@H](C)NC(=O)CNC(=O)[C@H](Cc1ccccc1)NC(=O)[C@H](CC(N)=O)NC(=O)[C@@H]1CCCN1C(=O)[C@H](CO)NC(=O)[C@H](CO)NC(=O)[C@H](Cc1c[nH]cn1)NC(=O)[C@H](CCCNC(=N)N)NC(=O)[C@H](CC(C)C)NC(=O)[C@H](Cc1ccccc1)NC(=O)[C@H](CCC(=O)O)NC(=O)[C@H](C)NC(=O)[C@H](CC(C)C)NC(=O)[C@H](CCCNC(=N)N)NC(=O)[C@H](CCC(N)=O)NC(=O)[C@@H](NC(=O)[C@H](C)NC(=O)[C@@H]1CSSC[C@H](NC(=O)[C@H](CCCCN)NC(=O)CC[C@H](NC(=O)CCCCCCCCCCCCCCCCCCC(=O)O)C(=O)O)C(=O)N[C@@H](CC(N)=O)C(=O)N[C@@H]([C@@H](C)O)C(=O)N[C@@H](C)C(=O)N[C@@H]([C@@H](C)O)C(=O)N1)[C@@H](C)O)C(=O)N1CCC[C@H]1C(=O)N[C@@H](CO)C(=O)N[C@@H](CO)C(=O)N[C@H](C(=O)N[C@@H](CC(N)=O)C(=O)N[C@H](C(=O)NCC(=O)N1CCC[C@H]1C(=O)N[C@@H](CC(N)=O)C(=O)N[C@H](C(=O)N[C@@H](Cc1ccc(O)cc1)C(N)=O)[C@@H](C)O)C(C)C)[C@@H](C)O [Example 32] ({C20 diacid-γGlu}-KCNTATCATQRLAEFLRHSSPNFGAIPSSTNVGPNTY-NH2; disulfide 2-7) | 5.98 nM | 0.176 nM | 34.0 | 34.0 | 34.0 | 62% | 7% |
| CC[C@H](C)[C@H](NC(=O)[C@H](C)NC(=O)CNC(=O)[C@H](Cc1ccccc1)NC(=O)[C@H](CC(N)=O)NC(=O)[C@@H]1CCCN1C(=O)[C@H](CO)NC(=O)[C@H](CO)NC(=O)[C@H](Cc1c[nH]cn1)NC(=O)[C@H](CCCNC(=N)N)NC(=O)[C@H](CC(C)C)NC(=O)[C@H](Cc1ccccc1)NC(=O)[C@H](CC(N)=O)NC(=O)[C@H](C)NC(=O)[C@H](CC(C)C)NC(=O)[C@H](CCCNC(=N)N)NC(=O)[C@H](CCC(N)=O)NC(=O)[C@@H](NC(=O)[C@H](C)NC(=O)[C@@H]1CSSC[C@H](NC(=O)[C@H](CCCCN)NC(=O)CC[C@H](NC(=O)CCCCCCCCCCCCCCCCCCC(=O)O)C(=O)O)C(=O)N[C@@H](CC(N)=O)C(=O)N[C@@H]([C@@H](C)O)C(=O)N[C@@H](C)C(=O)N[C@@H]([C@@H](C)O)C(=O)N1)[C@@H](C)O)C(=O)N1CCC[C@H]1C(=O)N[C@@H](CO)C(=O)N[C@@H](CO)C(=O)N[C@H](C(=O)N[C@@H](CC(N)=O)C(=O)N[C@H](C(=O)NCC(=O)N[C@@H](CO)C(=O)N[C@@H](CCCCN)C(=O)N[C@H](C(=O)N[C@@H](Cc1ccc(O)cc1)C(N)=O)[C@@H](C)O)C(C)C)[C@@H](C)O [Example 34] | 89.2 nM | 1.72 nM | 52.0 | 52.0 | 52.0 | 37% | 25% |

Second part, led by results:

| IC50 (rat calcitonin receptor) | IC50 ([1]; Table 7) | Ratio rCT/rAmylin binding [1, 2] | Ratio rCT/rAmylin binding [1, 3] | Ratio rCT/rAmylin binding [1, 4] | Compound | Food intake reduction 0-24 h 30 nmol/kg (%) (Sprague Dawley (SD) rats) | Food intake reduction 24-48 h 30 nmol/kg (%) (Sprague Dawley (SD) rats) |
| --- | --- | --- | --- | --- | --- | --- | --- |
| 61.7 nM | 0.948 nM | 65.1 | 65.1 | 65.1 | CC[C@H](C)[C@H](NC(=O)[C@H](C)NC(=O)CNC(=O)[C@H](Cc1ccccc1)NC(=O)[C@H](CC(N)=O)NC(=O)[C@@H]1CCCN1C(=O)[C@H](CO)NC(=O)[C@H](CO)NC(=O)[C@H](Cc1c[nH]cn1)NC(=O)[C@H](CCCNC(=N)N)NC(=O)[C@H](CC(C)C)NC(=O)[C@H](Cc1ccccc1)NC(=O)[C@H](CC(N)=O)NC(=O)[C@H](C)NC(=O)[C@H](CC(C)C)NC(=O)[C@H](CCCNC(=N)N)NC(=O)[C@H](CCC(N)=O)NC(=O)[C@@H](NC(=O)[C@H](C)NC(=O)[C@@H]1CSSC[C@H](NC(=O)[C@@H](N)CCCCNC(=O)CC[C@H](NC(=O)CCCCCCCCCCCCCCCCCCC(=O)O)C(=O)O)C(=O)N[C@@H](CC(N)=O)C(=O)N[C@@H]([C@@H](C)O)C(=O)N[C@@H](C)C(=O)N[C@@H]([C@@H](C)O)C(=O)N1)[C@@H](C)O)C(=O)N1CCC[C@H]1C(=O)N[C@@H](CO)C(=O)N[C@@H](CO)C(=O)N[C@H](C(=O)N[C@@H](CC(N)=O)C(=O)N[C@H](C(=O)NCC(=O)N[C@@H](CO)C(=O)N[C@@H](CCCCN)C(=O)N[C@H](C(=O)N[C@@H](Cc1ccc(O)cc1)C(N)=O)[C@@H](C)O)C(C)C)[C@@H](C)O [Example 35] (H-K([γGlu-C20 diacid])CNTATCATQRLANFLRHSSPNFGAIPSSTNVGSKTY-NH2; disulfide 2-7; N-terminus assumed) | 51% | 15% |
| 38 nM | 0.383 nM | – | – | – | CC[C@H](C)[C@H](NC(=O)[C@H](C)NC(=O)CNC(=O)[C@H](Cc1ccccc1)NC(=O)[C@H](CC(N)=O)NC(=O)[C@@H]1CCCN1C(=O)[C@H](CO)NC(=O)[C@H](CO)NC(=O)[C@H](Cc1c[nH]cn1)NC(=O)[C@H](CCCNC(=N)N)NC(=O)[C@H](CC(C)C)NC(=O)[C@H](Cc1ccccc1)NC(=O)[C@H](CC(N)=O)NC(=O)[C@H](C)NC(=O)[C@H](CC(C)C)NC(=O)[C@H](CCCNC(=N)N)NC(=O)[C@H](CCC(N)=O)NC(=O)[C@@H](NC(=O)[C@H](C)NC(=O)[C@@H]1CSSC[C@H](NC(=O)[C@@H](N)CCCCNC(=O)COCCOCCNC(=O)CC[C@H](NC(=O)CCCCCCCCCCCCCCCCCCC(=O)O)C(=O)O)C(=O)N[C@@H](CC(N)=O)C(=O)N[C@@H]([C@@H](C)O)C(=O)N[C@@H](C)C(=O)N[C@@H]([C@@H](C)O)C(=O)N1)[C@@H](C)O)C(=O)N1CCC[C@H]1C(=O)N[C@@H](CO)C(=O)N[C@@H](CO)C(=O)N[C@H](C(=O)N[C@@H](CC(N)=O)C(=O)N[C@H](C(=O)NCC(=O)N[C@@H](CO)C(=O)N[C@@H](CCCNC(=N)N)C(=O)N[C@H](C(=O)N[C@@H](Cc1ccc(O)cc1)C(N)=O)[C@@H](C)O)C(C)C)[C@@H](C)O [Example 38] | 47% | 0% |

From patent US9023789B2, “Amylin analogs and pharmaceutical compositions thereof” (Novo Nordisk A/S, priority 2012, dated 2015)
